Assay results as given in patent US20250205229A1, “DRUG FOR TREATING OR PREVENTING CHARCOT-MARIE-TOOTH DISEASE” (Kyoto University, priority 2022, published 2025).
Structures can show the parent of a compound that is named as a salt.

Assays:
MFN1 gene = experiment: Screening for MFN1 mRNA expression by qPCR in motor neurons derived from iPS cells of CMT patients with MFN2 mutations; format: cell-based, human; details: relative to vehicle (DMSO) defined as 1, motor neurons having the mutated MFN2 gene, compound added on day 10, RNA extracted on day 12
Source text: (§1) iPS cells established according to the method described in NPL 3 were used. The iPS cells were derived from peripheral-blood mononuclear cells (PBMCs) from CMT2 patients with MFN2 gene mutations (CMT1 (R94Q) and CMT2 (H128Y)) and healthy subjects without MFN2 mutations (Healthy). A feeder-free medium was used to perform maintenance culture of the iPS cells.
(§2) mRNA was extracted, and mRNA expression levels of MFN1 and MFN2 were quantified by qPCR.
(§3) The overview of the screening method is shown in the upper left of FIG. 2. Constructs expressing Lhx3, Ngn2, and Isl1 under tetracycline induction were introduced into the iPS cells using PiggyBac vectors, whereby stable lines were generated. Doxycycline was added to the iPS cells, and the iPS cells were cultured for 7 days using a neuro-differentiation medium to generate motor neurons (Imamura et al. Sci Transl Med 2017). […]
(§4) Screening was performed to search for existing drugs that increase the expression levels of the MIFN1 gene or MFN2 gene using the motor neurons having the mutated MFN2 gene. […] The expression levels of the MFN1 gene and the MFN2 gene are expressed as relative values with the mRNA expression levels thereof when a vehicle (DMSO) was administered being defined as 1.

MFN2 gene = experiment: Screening for MFN2 mRNA expression by qPCR in motor neurons derived from iPS cells of CMT patients with MFN2 mutations; format: cell-based, human; details: relative to vehicle (DMSO) defined as 1, motor neurons having the mutated MFN2 gene, compound added on day 10, RNA extracted on day 12
Source text: as §1, §2, §3, §4

CC(C)N=c1cc2n(-c3ccc(Cl)cc3)c3ccccc3nc-2cc1Nc1ccc(Cl)cc1 [Clofazimine, N,5-bis(4-chlorophenyl)-3-propan-2-yliminophenazin-2-amine]
Relative expression level of the MFN1 gene (MFN1 gene): 1.889
Relative expression level of the MFN2 gene (MFN2 gene): 1.197

CC[C@@H](CO)NC(=O)[C@@H]1C=C2c3cccc4[nH]cc(c34)C[C@H]2N(C)C1 [Methylergometrine Maleate, (6aR,9R)—N—((S)-1-hydroxybutan-2-yl)-7-methyl-4,6,6a,7,8,9-hexahydroindolo[4,3-fg]quinoline-9-carboxamide maleate]
Relative expression level of the MFN1 gene (MFN1 gene): 2.007
Relative expression level of the MFN2 gene (MFN2 gene): 3.676
